According to PubChem BioAssay (NCI):
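A five-concentration, 48-hour dose response in 96-well plates underlies each endpoint, interpolated linearly between surrounding concentrations. TGI marks complete inhibition of growth.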

Key:
Test in all cases: NCI tumour cell line growth inhibition, 48 h
[1] = system: COLO 205 colon
[2] = system: HT29 colon
[3] = system: SNB-75 CNS
[4] = system: HOP-18 NSCLC
[5] = system: M14 melanoma
[6] = system: NCI-H460 lung
[7] = system: OVCAR-4 ovarian
[8] = system: SR leukemia
[9] = system: DLD-1 colon
[10] = system: SK-MEL-2 melanoma
[11] = system: KM12 colon
[12] = system: SK-MEL-28 melanoma
[13] = system: HCT-116 colon
[14] = system: EKVX NSCLC
[15] = system: SN12C renal
[16] = system: MOLT-4 leukemia
[17] = system: A549 NSCLC
[18] = system: SF-539 CNS
[19] = system: HL-60(TB) leukemia
[20] = system: TK-10 renal
[21] = system: U251 CNS
[22] = system: NCI-H226 lung
[23] = system: KM20L2 colon
[24] = system: LXFL 529 NSCLC
[25] = system: CCRF-CEM leukemia
[26] = system: SK-OV-3 ovarian
[27] = system: OVCAR-3 ovarian
[28] = system: SK-MEL-5 melanoma
[29] = system: UACC-257 melanoma
[30] = system: RXF 393 renal
[31] = system: NCI-H522 lung
[32] = system: SF-295 CNS
[33] = system: ACHN renal
[34] = system: 786-0 renal
[35] = system: SNB-19 CNS
[36] = system: OVCAR-5 ovarian
[37] = system: DMS 114 small cell lung
[38] = system: XF 498 CNS
[39] = system: HCC-2998 colon
[40] = system: CAKI-1 renal
[41] = system: SF-268 CNS
[42] = system: DMS 273 small cell lung
[43] = system: K-562 leukemia
[44] = system: HCT-15 colon
[45] = system: SNB-78 CNS
[46] = system: NCI-H23 lung
[47] = system: HOP-92 NSCLC
[48] = system: A498 renal
[49] = system: UACC-62 melanoma
[50] = system: M19-MEL melanoma
[51] = system: RPMI-8226 leukemia
[52] = system: IGROV1 ovarian
[53] = system: MALME-3M melanoma
[54] = system: SW-620 colon
[55] = system: UO-31 renal
[56] = system: OVCAR-8 ovarian
[57] = system: HOP-62 NSCLC
[58] = system: LOX IMVI melanoma

SMILES: CC(=O)CC(=O)Nc1ccccc1[N+](=O)[O-]
- TGI [1]: > 100 µM
- TGI [2]: > 100 µM
- TGI [3]: > 100 µM
- TGI [4]: > 100 µM
- TGI [5]: > 100 µM
- TGI [6]: > 100 µM
- TGI [7]: > 100 µM
- TGI [8]: > 100 µM
- TGI [9]: > 100 µM
- TGI [10]: > 100 µM
- TGI [11]: > 100 µM
- TGI [12]: > 100 µM
- TGI [13]: > 100 µM
- TGI [14]: > 100 µM
- TGI [15]: > 100 µM
- TGI [16]: > 100 µM
- TGI [17]: > 100 µM
- TGI [18]: > 100 µM
- TGI [19]: > 100 µM
- TGI [20]: > 100 µM
- TGI [21]: > 100 µM
- TGI [22]: > 100 µM
- TGI [23]: > 100 µM
- TGI [24]: > 100 µM
- TGI [25]: > 100 µM
- TGI [26]: > 100 µM
- TGI [27]: > 100 µM
- TGI [28]: > 100 µM
- TGI [29]: > 100 µM
- TGI [30]: > 100 µM
- TGI [31]: > 100 µM
- TGI [32]: > 100 µM
- TGI [33]: > 100 µM
- TGI [34]: > 100 µM
- TGI [35]: > 100 µM
- TGI [36]: > 100 µM
- TGI [37]: > 100 µM
- TGI [38]: > 100 µM
- TGI [39]: > 100 µM
- TGI [40]: > 100 µM
- TGI [41]: > 100 µM
- TGI [42]: > 100 µM
- TGI [43]: > 100 µM
- TGI [44]: > 100 µM
- TGI [45]: > 100 µM
- TGI [46]: > 100 µM
- TGI [47]: > 100 µM
- TGI [48]: > 100 µM
- TGI [49]: > 100 µM
- TGI [50]: > 100 µM
- TGI [51]: > 100 µM
- TGI [52]: > 100 µM
- TGI [53]: > 100 µM
- TGI [54]: > 100 µM
- TGI [55]: > 100 µM
- TGI [56]: > 100 µM
- TGI [57]: > 100 µM

SMILES: CC1(C(=O)Nc2ccc3cc4ccccc4cc3c2)CC2(C)CC(C)(C1)C(O)NC2=O (stereo not drawn)
- TGI [1]: > 100 µM
- TGI [2]: > 100 µM
- TGI [3]: > 100 µM
- TGI [4]: > 100 µM
- TGI [5]: > 100 µM
- TGI [6]: > 100 µM
- TGI [7]: > 100 µM
- TGI [8]: > 100 µM
- TGI [9]: > 100 µM
- TGI [10]: > 100 µM
- TGI [11]: > 100 µM
- TGI [12]: > 100 µM
- TGI [13]: > 100 µM
- TGI [14]: > 100 µM
- TGI [15]: > 100 µM
- TGI [16]: > 100 µM
- TGI [17]: > 100 µM
- TGI [18]: > 100 µM
- TGI [19]: 85.8 µM
- TGI [20]: > 100 µM
- TGI [21]: > 100 µM
- TGI [22]: > 100 µM
- TGI [23]: > 100 µM
- TGI [24]: > 100 µM
- TGI [25]: > 100 µM
- TGI [26]: > 100 µM
- TGI [27]: > 100 µM
- TGI [28]: > 100 µM
- TGI [29]: > 100 µM
- TGI [30]: > 100 µM
- TGI [32]: > 100 µM
- TGI [33]: > 100 µM
- TGI [34]: > 100 µM
- TGI [36]: > 100 µM
- TGI [37]: > 100 µM
- TGI [38]: > 100 µM
- TGI [39]: > 100 µM
- TGI [40]: > 100 µM
- TGI [41]: > 100 µM
- TGI [42]: > 100 µM
- TGI [43]: > 100 µM
- TGI [58]: > 100 µM
- TGI [44]: > 100 µM
- TGI [45]: > 100 µM
- TGI [46]: > 100 µM
- TGI [47]: > 100 µM
- TGI [48]: > 100 µM
- TGI [49]: > 100 µM
- TGI [50]: > 100 µM
- TGI [51]: > 100 µM
- TGI [52]: > 100 µM
- TGI [53]: > 100 µM
- TGI [54]: > 100 µM
- TGI [55]: > 100 µM
- TGI [56]: > 100 µM
- TGI [57]: > 100 µM
